Key:
[1] = target: MYLK2 (skMLCK) (Homo sapiens, UniProt Q9H1R3); test: biochemical; conditions: read-out: % inhib
[2] = target: CSK (Homo sapiens, UniProt P41240); test: biochemical; conditions: read-out: % inhib
[3] = target: T1, human BCRP (Homo sapiens, UniProt Q9UNQ0); test: Transport assay in BCRP-MDCKII cell monolayers; format: in vitro ADME; conditions: 2-hour incubation
T1 construct: host or cells: BCRP-MDCKII (canine kidney)
Protocol: MDR1-MDCKI cells were licensed from the NCI (National Cancer Institute, Bethesda, Md.) and Bcrp1-MDCKII, BCRP-MDCKII and Mdr1a-LLC-PK1 cells were obtained from the Netherlands Cancer Institute (Amsterdam. The Netherlands). […] The compound was dissolved in transport buffer consisting of Hank's balanced salt solution (HBSS) with 10 mM HEPES (Invitrogen Corporation, Grand Island, N.Y.). Lucifer Yellow (Sigma-Aldrich, St. Louis, Mo.) was used as the paracellular and monolayer integrity marker. […] The efflux ratio (ER) was calculated (Papp, B-A/Papp, A-B).

T1 sequence (Q9UNQ0 whole entry): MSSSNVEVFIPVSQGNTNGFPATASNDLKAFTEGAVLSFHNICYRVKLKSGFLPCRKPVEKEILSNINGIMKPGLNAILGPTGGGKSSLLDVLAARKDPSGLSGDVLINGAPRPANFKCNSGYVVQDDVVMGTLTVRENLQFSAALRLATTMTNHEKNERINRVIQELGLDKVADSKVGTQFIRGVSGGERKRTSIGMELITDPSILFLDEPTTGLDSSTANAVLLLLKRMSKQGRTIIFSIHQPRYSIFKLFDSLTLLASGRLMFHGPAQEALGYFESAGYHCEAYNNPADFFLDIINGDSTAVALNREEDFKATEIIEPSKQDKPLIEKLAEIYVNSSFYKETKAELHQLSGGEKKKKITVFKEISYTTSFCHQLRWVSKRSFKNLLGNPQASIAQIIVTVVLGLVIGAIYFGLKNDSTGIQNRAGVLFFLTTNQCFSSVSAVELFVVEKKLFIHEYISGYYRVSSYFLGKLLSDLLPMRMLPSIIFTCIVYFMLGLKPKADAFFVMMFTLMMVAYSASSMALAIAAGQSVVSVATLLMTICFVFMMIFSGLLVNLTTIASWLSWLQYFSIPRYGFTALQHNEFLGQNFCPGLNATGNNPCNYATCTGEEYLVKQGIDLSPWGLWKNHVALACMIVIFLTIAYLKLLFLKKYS
Chain of CSK (P41240 whole entry, species assumed): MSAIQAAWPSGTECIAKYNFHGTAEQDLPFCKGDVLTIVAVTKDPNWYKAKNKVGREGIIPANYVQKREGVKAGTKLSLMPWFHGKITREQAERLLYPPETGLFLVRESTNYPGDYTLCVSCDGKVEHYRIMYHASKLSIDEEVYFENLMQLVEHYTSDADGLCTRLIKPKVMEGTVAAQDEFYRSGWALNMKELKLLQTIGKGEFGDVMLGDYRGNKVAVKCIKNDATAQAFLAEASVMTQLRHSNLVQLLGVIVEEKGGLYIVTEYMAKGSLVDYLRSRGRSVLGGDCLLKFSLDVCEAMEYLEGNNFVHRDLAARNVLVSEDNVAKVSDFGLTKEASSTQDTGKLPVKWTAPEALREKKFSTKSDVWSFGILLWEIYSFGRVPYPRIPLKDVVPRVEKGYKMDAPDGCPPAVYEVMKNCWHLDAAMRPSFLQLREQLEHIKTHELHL
Chain of MYLK2 (skMLCK) (Q9H1R3 whole entry): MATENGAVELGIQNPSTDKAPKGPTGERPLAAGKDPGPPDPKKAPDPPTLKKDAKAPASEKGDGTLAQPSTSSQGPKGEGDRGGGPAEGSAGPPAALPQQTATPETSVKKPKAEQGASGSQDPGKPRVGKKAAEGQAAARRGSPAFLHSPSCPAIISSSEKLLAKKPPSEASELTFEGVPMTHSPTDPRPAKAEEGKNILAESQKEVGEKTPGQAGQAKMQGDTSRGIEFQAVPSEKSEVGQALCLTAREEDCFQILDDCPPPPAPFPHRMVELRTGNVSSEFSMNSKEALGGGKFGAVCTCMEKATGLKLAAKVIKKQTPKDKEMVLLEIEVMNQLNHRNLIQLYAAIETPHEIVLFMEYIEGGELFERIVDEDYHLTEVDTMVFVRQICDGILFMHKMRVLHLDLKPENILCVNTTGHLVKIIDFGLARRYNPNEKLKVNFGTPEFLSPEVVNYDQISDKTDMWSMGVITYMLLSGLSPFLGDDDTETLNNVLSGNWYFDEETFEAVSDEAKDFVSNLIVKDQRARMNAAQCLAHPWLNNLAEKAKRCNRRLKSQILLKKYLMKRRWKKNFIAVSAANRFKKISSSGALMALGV

For `CC1(C)OCCn2c1nc1c(N3CCOCC3)nc(-c3cnc(N)nc3)nc12` [GDC-0084, 5-(6,6-dimethyl-4-morpholino-8,9-dihydro-6H-[1,4]oxazino[3,4-e]purin-2-yl)pyrimidin-2-amine], the inhibition at 1 µM [1] was 3%, the inhibition at 1 µM [2] was 10% and the Papp A→B at 2 h, 5 μM [3] was 23.2 ± 5.4 ×10⁻⁶ cm/s. It also gave a Papp B→A at 2 h, 5 μM [3] of 16 ± 1.1 ×10⁻⁶ cm/s.
